Experimental data from patent US6762200B2, “Oxa(thia)zolidine derivative and anti-inflammatory drug” (Nippon Soda Co. Ltd., priority 2000, dated 2004).

Legend:
IV-cPLA(2) = target: T1, IV-cPLA(2) (Homo sapiens, UniProt P47712); experiment: PLA(2) activity, hydrolysis of bis-BODIPY FL C11-PC in activated U937 cells; type: cell-based; settings: for inhibition at 0.1 µM: U-937, 0.1 μM
T1 sequence (P47712 1-749): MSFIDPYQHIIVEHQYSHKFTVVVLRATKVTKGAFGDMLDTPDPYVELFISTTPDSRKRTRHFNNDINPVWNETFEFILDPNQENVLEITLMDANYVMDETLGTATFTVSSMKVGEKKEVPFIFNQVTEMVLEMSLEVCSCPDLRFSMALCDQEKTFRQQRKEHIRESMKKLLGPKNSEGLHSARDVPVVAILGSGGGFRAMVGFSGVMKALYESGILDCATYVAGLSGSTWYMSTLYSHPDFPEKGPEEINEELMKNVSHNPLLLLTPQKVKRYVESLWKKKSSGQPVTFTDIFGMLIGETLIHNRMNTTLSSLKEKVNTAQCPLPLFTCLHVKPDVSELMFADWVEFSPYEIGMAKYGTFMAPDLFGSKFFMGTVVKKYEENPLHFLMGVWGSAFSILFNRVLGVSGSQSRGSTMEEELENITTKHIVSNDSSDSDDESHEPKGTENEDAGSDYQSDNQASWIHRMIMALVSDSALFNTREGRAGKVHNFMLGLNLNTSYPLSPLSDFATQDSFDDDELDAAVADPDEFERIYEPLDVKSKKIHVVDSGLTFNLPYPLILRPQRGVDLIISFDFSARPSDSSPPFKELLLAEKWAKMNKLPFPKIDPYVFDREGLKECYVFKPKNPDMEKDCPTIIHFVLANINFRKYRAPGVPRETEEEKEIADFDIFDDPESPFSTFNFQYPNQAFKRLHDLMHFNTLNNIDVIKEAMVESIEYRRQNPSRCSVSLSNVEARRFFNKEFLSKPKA
Description: The PLA(2) activity was measured by quantitatively analyzing the fluorescent product of hydrolysis from 1,2-bis-(4,4-difluoro-5,7-dimethyl-4-bora-3a,4a-diaza-s-indecene-3-undecanoyl)-sn-glycero-3-phosphocholine (hereinafter referred to bis-BODIPY®FL C11—PC, Molecular Probes, Inc., B-7701) using activated U937 cells (human monoblastic lymphoma cell line) by inflammatory stimulus (Meshulam, T. et al., The journal of Biological Chemistry 267 (30): 21465-21470 (1992); and Solito, E. et al., British Journal of Pharmacology 124: 1675-1683 (1998).). The substrate bis-BODIPY®FL C11—PC is incorporated into cellular membranes, the proximity of the BODIPY FL fluorophores on adjacent phospholipid acyl chains causes fluorescence self-quenching. Separation of the fluorophores upon hydrolytic cleavage of one of the acyl chains by PLA(1) or the PLA(2) results in increased fluorescence. In the activated U937 by inflammatory stimulus, it is shown that this substrate should be cleaved enzymatically by IV-cPLA(2) from the feature of its behaviors including sensitivity profiles against the inhibitors.
The human cell line U937 was purchased from Dai-Nippon Pharmaceuticals Co., Ltd. The cells were maintained by transferring every 3-4 days into RPMI 1640 medium (Sigma Chemical Co., R6504) supplemented with heat-inactivated 10% fetal bovine serum (Fetal Bovine Serum, Sigma Chemical Co., F 4135) in a 5% CO2 humidified atmosphere at 37° C. The cells were transferred into the culture medium described above, containing 1.2% (v/v) dimethylsulfoxide (hereinafter referred to as […], Nacalai tesque Co., Ltd., D 134-45), and pre-cultured for 96 to 120 hours so as to differentiate into the macrophage-like cells to be provided for the assay. The macrophage-like cells were collected and washed by centrifugation with the Assay medium (Dulbecco's phosphate buffered saline (hereinafter referred to as PBS)-2.2 mM glucose-2.5 μm albumin). Then, Phorbol 12-Myristate 13-Acetate (hereinafter referred to as TPA, Sigma Chemical Co., P 8139) was added to the Assay medium to be 1×10^−8M as the final concentration. Then, the macrophage-like cells were further cultured for an hour to be activated (Rzigalinski, B. A. & Rosenthal, M. D., Biochimica et Biophysica Acta 1223: 219-225 (1994); and Gonchar, M. V. et al., Biochemical and Biophysical Research Communication, 249: 829-832 (1998).).
For preparing substrate liposome suspension, bis-BODIPY®FL C11—PC was combined with phosphatidylcholine (Sigma Chemical Co., P 7769) at 1:9 molar ratio in chloroform, and dried under nitrogen flow. The dried mixture was suspended with the Assay medium at 100 μg/mL, voltexed and sonicated for an hour on ice under dark condition.
The test compound was dissolved with DMSO at 30 mM, and the solution diluted with either DMSO or the Assay medium before addition into the reaction mixture. The DMSO concentration in the reaction mixture was controlled so as to be no more than 0.1%. The 30-fold concentration of test compound solution was put into each well of MICRPTEST™ Tissue Culture Plate, 96 Well (Falcon, 3072) at a rate of 2.5 μL/well. To the respective well was added 25 μL/well of the activated U937 cell suspension ([…]), and the cells were pre-cultured for 120 min. at 37° C. in a 5% CO2 atmosphere incubator. 47.5 μL/well of the substrate liposome suspension with 1.5×10^−6M A23187 (Sigma Chemical Co., C 7522) was added into each well to prepare 75 μL/well of the total reaction mixture, followed by culture for 30 min. under the same conditions with shielding against light. 100 μL/well of 0.1% GEDTA (Dojindo Laboratories Co. Ltd., 348-01311) methanol solution was added into each well and mixed to stop the reaction. […]

TPA-induced ear edema = type: in vivo, ICR-strain male mouse; settings: topical, 0.3 mg/20 μL/ear × 2; 6 hours after TPA
Description: This test was carried out referring to the method of Carlson, R. P. et al. (Agents and Actions, 17(2): 197-204 (1985).) and the method of Chang, J. (European Journal of Pharmacology, 142: 197-205 (1987).). […] 6 hours later, the thickness of each ear at the particular part was respectively measured three times using a digimatic micrometer to calculate the mean value. Ear edema was determined by subtracting the mean thickness of the left ear as without treatment from that of the right ear as TPA-applied. […] As the positive control, 100 mg/kg of Hydrocortisone (Sigma Chemical Co., H 4001) suspension was applied to the mouse similarly as for the compound of the present invention.

[1] = test system: acetic acid-induced writhes; experiment: Acetic acid writhing; type: in vivo, ICR-strain male mouse; settings: i.p., 10 to 20 min after acetic acid
Description: This test was carried out referring to the method of Inoue, K., Motonaga, A. & Nishimura, T (Arzneimittel Forshung/Drug Research, 41 (1): 235-239 (1991)). More specifically, 7.5 mL/kg of 0.9% acetic acid solution was injected intraperitoneally into an ICR-strain male mouse (5 to 7 weeks old), and the induced writhes (characteristic behaviors of convulsive contracting the abdomen, twisting the body and/or extending the legs) were observed. Number of writhes of each mouse was measured during 10 to 20 min. period after acetic acid administration. The compound of the present invention was homogeneously suspended in 2% Tween 80/saline for injection use, and was injected intraperitoneally 30 min. before the induction by the acetic acid injection. Alternatively, the compound of the present invention was homogeneously suspended in 2% Tween 80/distilled water, and was administrated orally two hours before the induction by the acetic acid injection. The analgesic activity of the compounds according to the present invention was evaluated on the basis of the degree of inhibiting the number writhes by the administration of the compounds. As the positive control, indomethacin or aspirin was administrated. The analgesic activity of the compounds according to the present invention measured in this test were exemplified in Table 7.

Compound	Inhibition (%) (IV-cPLA(2); 0.1 μM)	Inhibition (%) (IV-cPLA(2); 0.01 μM)	Ear Edema Inhibition (%) (TPA-induced ear edema)	Number of writhes (Mean ± S.E.) ([1]; 1 mg/kg)	inhibition at 0.1 µM (IV-cPLA(2)) [%]	melting point [°C]	Number of writhes (Mean ± S.E.) ([1]; 0.3 mg/kg)
CN=C1OC(c2ccc(C)cc2)C(C)N1C(=O)NC1CCCCO1 (centres unmarked) [Compound 1-22]	84		56	12.7 ± 4.1			
C[C@H]1[C@H](c2ccc(Cl)cc2)OC(=N[N+](=O)[O-])N1Cc1ccc(Cl)nc1 (relative stereo) [Compound 1-12, trans-5-(4-chlorophenyl)-4-methyl-3-(2-chloro-5-pyridylmethyl)-2-nitroiminooxazolidine]			79	10.0 ± 1.1	52		
C[C@@H]1NC(=N[N+](=O)[O-])O[C@H]1c1ccc(Cl)cc1 (relative stereo) [Compound 1-10, trans-5-(4-chlorophenyl)-4-methyl-2-nitroiminooxazolidine]					79	123 to 126	

The next lines start with results.

Inhibition (%) (IV-cPLA(2); 0.1 μM)	Inhibition (%) (IV-cPLA(2); 0.01 μM)	Compound	Ear Edema Inhibition (%) (TPA-induced ear edema)	Number of writhes (Mean ± S.E.) ([1]; 1 mg/kg)	inhibition at 0.1 µM (IV-cPLA(2)) [%]	melting point [°C]	Number of writhes (Mean ± S.E.) ([1]; 0.3 mg/kg)
	86	Cc1ccc(C2SC(=O)N(C(=O)NC3CCCCO3)C2C)cc1 (centres unmarked) [Compound 2-189]	84	0.8 ± 0.5			
	64	COC1CCCC(NC(=O)N2C(=O)OC(c3ccc4c(c3)CCCC4)C2C)O1 (centres unmarked) [Compound 2-135]	84	0.8 ± 0.8			
77		CCOC(=O)CCC(NC(=O)N1C(=O)SC(c2ccc(Cl)cc2)C1C)C(=O)OCC (centres unmarked) [Compound 2-26]	86				9.8 ± 1.9
